Measurements reported in US20150105252A1, “SUBSTITUTED PYRAZOLES AS HERBICIDES” (E I DU PONT DE NEMOURS AND COMPANY, priority 2013, published 2015).

Columns and labels:
soybean = test: Test C preemergence; type: in vivo, Glycine max
From the text: (§1) Seeds of plant species selected from blackgrass (Alopecurus myosuroides), ryegrass, Italian (Italian ryegrass, Lolium multiflorum), wheat (winter wheat, Triticum aestivum), galium (catchweed bedstraw, Galium aparine), corn (Zea mays), crabgrass, large (large crabgrass, Digitaria sanguinalis), foxtail, giant (giant foxtail, Setaria faberii), johnsongrass (Sorghum halepense), lambsquarters (Chenopodium album), morningglory (Ipomoea coccinea), nutsedge, yellow (yellow nutsedge, Cyperus esculentus), pigweed (redroot pigweed, Amaranthus retroflexus), ragweed (common ragweed, Ambrosia elation), soybean (Glycine max), barnyardgrass (Echinochloa crus-galli), oilseed rape (Brassica napus), waterhemp (common waterhemp, Amaranthus rudis), oat, wild (wild oat, Avena fatua), kochia (Kochia scoparia), Surinam grass (Brachiaria decumbens), foxtail, green (green foxtail, Setaria viridis), goosegrass (Eleusine indica), bromegrass, downy (downy bromegrass, Bromus tectorum), nightshade (eastern black nightshade, Solanum ptycanthum), cocklebur (common cocklebur, Xanthium strumarium), cupgrass, woolly (woolly cupgrass, Eriochloa villosa), bermudagrass (Cynodon dactylon), sunflower, (common oilseed sunflower, Helianthus annuus), Russian thistle (Salsola kali), and velvetleaf (Abutilon theophrasti) were planted into a blend of loam soil and sand and treated preemergence with test chemicals formulated in a non-phytotoxic solvent mixture which included a surfactant.
(§2) At the same time, plants selected from these crop and weed species and also chickweed (common chickweed, Stellaria media), canarygrass (littleseed canarygrass, Phalaris minor), and deadnettle (henbit deadnettle, Lamium amplexicaule), were planted in pots containing Redi-Earth® planting medium (Scotts Company, 14111 Scottslawn Road, Marysville, Ohio 43041) comprising spaghnum peat moss, vermiculite, wetting agent and starter nutrients and treated with postemergence applications of test chemicals formulated in the same manner. Plants ranged in height from 2 to 18 cm (1- to 4-leaf stage) for postemergence treatments. Treated plants and controls were maintained in a greenhouse for 13 to 15 days, after which time all species were compared to controls and visually evaluated. Plant response ratings, summarized in Table C, are based on a scale of 0 to 100 where 0 is no effect and 100 is complete control. A dash (-) response means no test result.

galium = test: Test C preemergence; type: in vivo, Galium aparine
From the text: as §1, §2

pigweed = test: Test C preemergence; type: in vivo, Amaranthus retroflexus
From the text: as §1, §2

johnsongrass = test: Test C preemergence; type: in vivo, Sorghum halepense
From the text: as §1, §2

velvetleaf [1] = test: Test A postemergence; type: in vivo, Abutilon theophrasti
Outline: (§3)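 Visual injury rating, 0–100 (0 no effect, 100 complete control), vs untreated controls ~10 days after treatment in greenhouse. Pre: directed soil spray on seeded loam/sand. Post: 2–10 cm plants, 1–2 leaf stage. Formulation: non-phytotoxic solvent mix + surfactant.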

velvetleaf [2] = test: Test C preemergence; type: in vivo, Abutilon theophrasti
From the text: as §1, §2

crabgrass, large = test: Test A postemergence; type: in vivo, Digitaria sanguinalis
Outline: as §3

barnyardgrass [3] = test: Test C preemergence; type: in vivo, Echinochloa crus-galli
From the text: as §1, §2

corn [4] = test: Test C preemergence; type: in vivo, Zea mays
From the text: as §1, §2

barnyardgrass [5] = test: Test A preemergence; type: in vivo, Echinochloa crus-galli; details: 0 to 100 scale
Outline: as §3

corn [6] = test: Test A postemergence; type: in vivo, Zea mays
Outline: as §3

[7] = preemergence, 31 g ai/ha, visual rating, scale 0 to 100 (0 no effect, 100 complete control), 13 to 15 days
[8] = preemergence, 62 g ai/ha, 13 to 15 days, scale 0 to 100, 0 = no effect, 100 = complete control
[9] = preemergence, 125 g ai/ha, scale 0 to 100, 0 is no effect, 100 is complete control
[10] = Postemergence, 500 g ai/ha, visual rating after approx. 10 days, 0 to 100 scale (0 no effect, 100 complete control)
[11] = postemergence, 125 g ai/ha, about 10 days, visual rating on 0 to 100 scale (0 no effect, 100 complete control)

CCc1cc(C(=O)NCC(F)(F)F)nn1Cc1ccnc(C(F)(F)F)c1 [Compound 78, 5-ethyl-N-(2,2,2-trifluoroethyl)-1-[[(2-trifluoromethyl)-4-pyridinyl]methyl]-1H-pyrazole-3-carboxamide]
60: Corn plant response rating (corn [4]; [7])
95: Plant response rating, Johnsongrass (johnsongrass; [8]) | Corn plant response rating (corn [4]; [9])
65: Plant response rating, Corn (corn [4]; [8])
85: Galium plant response rating (galium; [7]) | Johnsongrass plant response rating (johnsongrass; [7])
90: Crabgrass, Large plant response rating (crabgrass, large; [11])
100: Plant response rating (scale of 0 to 100), Galium (galium; Preemergence, 250 g ai/ha) | Plant response rating, Galium (galium; [8]) | Galium plant response rating (galium; [9]) | Plant response rating (scale of 0 to 100), Pigweed (pigweed; Preemergence, 250 g ai/ha) | Pigweed plant response rating (pigweed; [7]) | Plant response rating, Pigweed (pigweed; [8]) | Pigweed plant response rating (pigweed; [9]) | Plant response rating (scale of 0 to 100), Johnsongrass (johnsongrass; Preemergence, 250 g ai/ha) | Johnsongrass plant response rating (johnsongrass; [9]) | Velvetleaf plant response rating (velvetleaf [1]; [10]) | Velvetleaf plant response rating (velvetleaf [1]; [11]) | Plant response rating (scale of 0 to 100), Velvetleaf (velvetleaf [2]; Preemergence, 250 g ai/ha) | Plant response rating, Velvetleaf (velvetleaf [2]; [8]) | Velvetleaf plant response rating (velvetleaf [2]; [9]) | Crabgrass, Large plant response rating (crabgrass, large; [10]) | Plant response rating (scale of 0 to 100), Barnyardgrass (barnyardgrass [3]; Preemergence, 250 g ai/ha) | Barnyardgrass plant response rating (barnyardgrass [3]; preemergence, 31 g ai/ha, scale 0 to 100 (0 no effect, 100 complete control), 13 to 15 days) | Plant response rating, Barnyardgrass (barnyardgrass [3]; [8]) | Barnyardgrass plant response rating (barnyardgrass [3]; [9]) | Barnyardgrass plant response rating (barnyardgrass [5]; Preemergence, 500 g ai/ha, 0 no effect, 100 complete control) | Barnyardgrass plant response rating (barnyardgrass [5]; preemergence, 125 g ai/ha, visual injury, approx. 10 days) | Corn plant response rating (corn [6]; [10]) | Corn plant response rating (corn [6]; [11])
98: Plant response rating (scale of 0 to 100), Soybean (soybean; Preemergence, 250 g ai/ha) | Soybean plant response rating (soybean; [7]) | Plant response rating, Soybean (soybean; [8]) | Soybean plant response rating (soybean; [9]) | Plant response rating (scale of 0 to 100), Corn (corn [4]; Preemergence, 250 g ai/ha)
80: Velvetleaf plant response rating (velvetleaf [2]; [7])
